From patent publication US20210300924A1, “5-[6-[[3-(4,5,6,7-TETRAHYDROPYRAZOLO[4,3-C]PYRIDIN-1-YL)AZETIDIN-1-YL]METHYL]MORPHOLIN-4-YL]QUINOLINE-8-CARBONITRILE DERIVATIVES AND SIMILAR COMPOUNDS AS TLR7-9 ANTAGONISTS FOR TREATING SYSTEMIC LUPUS ERYTHEMATOSUS” (Hoffmann-La Roche Inc., priority 2018, published 2021)

Key:
[1] = Human microsome stability assay; type: in vitro ADME; conditions: 1 μM test compound, 0.5 mg/mL liver microsomal protein, 37° C., up to 30 minutes; 6.2 = detection limit
Protocol: Human Microsome Stability Assay
The human microsomal stability assay is used for early assessment of metabolic stability of a test compound in human liver microsomes.
Human liver microsomes (Cat. NO.: 452117, Corning, USA; Cat. NO.:H2610, Xenotech, USA) were preincubated with test compound for 10 minutes at 37° C. in 100 mM potassium phosphate buffer, pH 7.4. The reactions were initiated by adding NADPH regenerating system. The final incubation mixtures contained 1 μM test compound, 0.5 mg/mL liver microsomal protein, 1 mM MgCl2, 1 mM NADP, 1 unit/mL isocitric dehydrogenase and 6 mM isocitric acid in 100 mM potassium phosphate buffer, pH 7.4. After incubation times of 0, 3, 6, 9, 15 and 30 minutes at 37° C., 300 μL of cold acetonitrile (including internal standard) was added to 100 μL incubation mixture to terminate the reaction. Following precipitation and centrifugation, the amount of compound remaining in the samples were determined by LC-MS/MS. Controls of no NADPH regenerating system at zero and 30 minutes were also prepared and analyzed.

TLR9 = biological target: T1, TLR9 (Homo sapiens, UniProt Q9NR96); experiment: HEK293-Blue-hTLR-9 cells assay; type: cell-based; set-up: host or cells: HEK293 (HEK-Blue hTLR9); conditions: HEK293-Blue-hTLR9 cells, ODN2006 stimulation, 20 hrs, SEAP reporter; read-out: HEK/hTLR9 IC50
T1 sequence (Q9NR96 26-1032): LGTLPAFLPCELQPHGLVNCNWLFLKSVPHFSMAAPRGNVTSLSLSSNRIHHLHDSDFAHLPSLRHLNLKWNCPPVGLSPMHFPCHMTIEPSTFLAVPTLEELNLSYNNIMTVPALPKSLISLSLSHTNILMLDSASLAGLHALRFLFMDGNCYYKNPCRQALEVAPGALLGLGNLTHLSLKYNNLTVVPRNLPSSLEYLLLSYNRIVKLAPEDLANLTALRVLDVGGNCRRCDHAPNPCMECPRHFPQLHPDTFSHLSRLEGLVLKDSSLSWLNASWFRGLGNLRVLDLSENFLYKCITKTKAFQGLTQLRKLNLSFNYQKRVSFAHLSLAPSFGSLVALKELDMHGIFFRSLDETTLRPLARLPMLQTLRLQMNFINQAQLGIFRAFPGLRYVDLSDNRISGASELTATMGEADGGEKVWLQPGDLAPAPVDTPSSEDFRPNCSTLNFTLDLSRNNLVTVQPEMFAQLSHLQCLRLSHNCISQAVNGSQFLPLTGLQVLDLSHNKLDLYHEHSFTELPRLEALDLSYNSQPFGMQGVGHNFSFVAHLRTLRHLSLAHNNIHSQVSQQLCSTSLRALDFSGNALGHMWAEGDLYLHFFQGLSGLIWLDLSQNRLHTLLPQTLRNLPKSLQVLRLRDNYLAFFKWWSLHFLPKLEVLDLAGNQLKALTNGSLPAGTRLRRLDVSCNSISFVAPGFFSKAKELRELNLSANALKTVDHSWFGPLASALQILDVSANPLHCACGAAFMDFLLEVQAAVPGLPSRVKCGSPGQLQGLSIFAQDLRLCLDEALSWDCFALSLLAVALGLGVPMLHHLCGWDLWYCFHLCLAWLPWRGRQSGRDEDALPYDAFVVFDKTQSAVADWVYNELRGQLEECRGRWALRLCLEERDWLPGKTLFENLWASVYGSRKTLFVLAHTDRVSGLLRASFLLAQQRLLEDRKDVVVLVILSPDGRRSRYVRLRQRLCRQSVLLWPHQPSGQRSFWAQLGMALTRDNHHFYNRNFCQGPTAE
Excerpt: HEK293-Blue-hTLR-9 Cells Assay:
A stable HEK293-Blue-hTLR-9 cell line was purchased from InvivoGen (Cat. #: hkb-htlr9, San Diego, Calif., USA). These cells were originally designed for studying the stimulation of human TLR9 by monitoring the activation of NF-κB. A SEAP (secreted embryonic alkaline phosphatase) reporter gene was placed under the control of the IFN-β minimal promoter fused to five NF-κB and AP-1-binding sites. The SEAP was induced by activating NF-κB and AP-1 via stimulating HEK-Blue hTLR9 cells with TLR9 ligands. Therefore the reporter expression was declined by TLR9 antagonist under the stimulation of a ligand, such as ODN2006 (Cat. #: tlr1-2006-1, Invivogen, San Diego, Calif., USA), for incubation of 20 hrs. The cell culture supernatant SEAP reporter activity was determined using QUANTI-Blue™ kit (Cat. #: rep-01, Invivogen, San Diego, Calif., USA) at a wavelength of 640 nm, a detection medium that turns purple or blue in the presence of alkaline phosphatase.
HEK293-Blue-hTLR9 cells were incubated at a density of 250,000-450,000 cells/mL in a volume of 170 μL in a 96-well plate in Dulbecco's Modified Eagle's medium (DMEM) containing 4.5 g/L glucose, 50 U/mL penicillin, […], 2 mM L-glutamine, 10% (v/v) heat-inactivated fetal bovine serum with addition of 20 μL test compound in a serial dilution in the presence of final DMSO at 1% and 10 μL of 20 uM ODN2006 in above DMEM, perform incubation under 37° C. in a CO2 incubator for 20 hrs. Then 20 μL of the supernatant from each well was incubated with 180 μL Quanti-blue substrate solution at 37° C. for 2 h and the absorbance was read at 620-655 nm using a spectrophotometer. The signaling pathway that TLR9 activation leads to downstream NF-κB activation has been widely accepted, and therefore similar reporter assay was modified for evaluating TLR9 antagonist.

Clearance of Human microsome [1]	IC50 (TLR9)	Structure (SMILES)
7.1 mL/min/kg	134 nM	Cc1nn(C2CN(C[C@H]3CN(c4ccc(C#N)c5ncccc45)C[C@@H](C)O3)C2)c2c1CCNC2 [Example 42, 5-[(2R,6S)-2-methyl-6-[[3-(3-methyl-4,5,6,7-tetrahydropyrazolo[3,4-c]pyridin-1-yl)azetidin-1-yl]methyl]morpholin-4-yl]quinoline-8-carbonitrile]
6.5 mL/min/kg	83 nM	Cc1c2c(nn1C1CN(C[C@H]3CN(c4ccc(C#N)c5ncccc45)C[C@@H](C)O3)C1)CNCC2 [Example 43, 5-[(2R,6S)-2-methyl-6-[[3-(3-methyl-4,5,6,7-tetrahydropyrazolo[3,4-c]pyridin-2-yl)azetidin-1-yl]methyl]morpholin-4-yl]quinoline-8-carbonitrile]
